Assay: in vitro permeation/penetration in porcine vaginal tissue (Franz diffusion cell)
Assay type: in vitro ADME
Method: The permeation/penetration of the formulation according to Example 1 in porcine vaginal tissue was assessed by in vitro experiments.
The in vitro experiments involved the use of a Franz diffusion cell designed to mimic the physiological and anatomical conditions of porcine vaginal tissue in situ. Porcine vaginal tissue skin was positioned between the two halves of a Franz diffusion cell with the vaginal epithelium facing the donor compartment allowing for drug product application. The other side of the porcine vaginal tissue skin faced a receiver fluid comprising 2% w/v Tween 80 in 20% v/v PEG 400 in water.
Prior to dosing of the formulation on the tissue, the integrity of the tissue was assessed as follows: • (i) Porcine vaginal tissue was mounted between the donor and receiver compartments and the cells were sealed together using Parafilm®. • (ii) The donor and receiver chambers were filled with PBS solution and a small magnetic follower was placed in the receiver compartment. • (iii) Cells were equilibrated in a water bath, ensuring a membrane temperature of 32° C. for 30 min. • (iv) The electrodes of the ISO-TECH LCR821 Meter were placed in the receiver chamber through the sampling arm and the donor chamber and the LCR was set at 100 Hz and set to ‘R’ for resistance. • (v) The resistance of the tissue in each Franz cell was measured using a ISO-TECH LCR821 Meter (SOP 3174). Cells with a resistance below the acceptable limits were discarded and remounted.
Following the tissue integrity testing, the PBS solutions were removed from each compartment and the receiver compartments of cells passing the resistance criteria were filled with receiver fluid. Each cell was then equilibrated to ensure a surface temperature of 32° C. (external skin surface temperature) for at least 30 min prior to dosing. An additional Franz cell was also mounted but not dosed (to act as a blank) to assess interference with sample quantification.
A positive displacement pipette was used to apply 6-8 mg of the formulation of table 1 to the tissue surface. Prior to application the weight of each test formulation was verified by weighing the amount dispensed by the positive displacement pipette into an empty vial (n=6).
Receiver fluid (200 μL) was removed at the following time points t=0, 1, 2, 4, 6 and 24 h and transferred to a HPLC vial for analysis. Fresh pre-warmed (37° C.) receiver fluid was used to replace the receiver fluid removed at each time point. Following the 24 h time point, remaining receiver fluid was removed from the Franz cells and the drug was recovered. […]

[1] = formulation of Example 1, after 24 h, Franz cell

CN(C)[C@]1(c2cccc(F)c2)CC[C@]2(CC1)c1[nH]c3ccccc3c1CCN2C(=O)/C=C/c1ccccc1 [pharmacologically active compound, cis-(E)-4-(3-fluorophenyl)-2′,3′,4′,9′-tetrahydro-N,N-dimethyl-2′-(1-oxo-3-phenyl-2-propenyl)-spiro[cyclohexane-1,1′[1H]-pyrido[3,4-b]indol]-4-amine]
Mean recovery of the pharmacologically active compound from the epithelium of porcine vaginal tissue (formulation of Example 1 (2.60 wt.-% compound), 6-8 mg applied, after 24 h, Franz cell, 32° C.): 9.72 μg
Mean recovery of the pharmacologically active compound from the epithelium of porcine vaginal tissue [1]: 810.21 μg/mL
Total concentration presented to vaginal epithelium [1]: 1596.04 µM
permeation into the epithelium of porcine vaginal tissue (in words) (formulation of Example 1, in vitro, 24 h): permeates into the epithelium of porcine vaginal tissue
